From ChEMBL document CHEMBL1201862, “PubChem BioAssay data set” (2004)
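96-well plates; 48 h exposure; 5 concentrations. Endpoints by linear interpolation between flanking doses. Not reached: highest tested concentration assigned. The concentration for 50% growth inhibition is given as GI50.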 Active and inactive are the calls of the source. No stated cut-off is given here; in the data, active = GI50 up to about 1.1 µM and inactive = higher. Peptide text beside a SMILES is read from it. * marks the point of attachment. Boc = CC(C)(C)OC(=O)*

Tests used:
Assay in all cases: NCI anticancer screen, dose series, 48 h
A498 = system: A498
A549 = system: A549
BT-549 = system: BT-549
CAKI-1 = system: CAKI-1
COLO 205 = system: COLO 205
DU-145 = system: DU-145
HCT-116 = system: HCT-116
HT-29 = system: HT-29
Hs-578T = system: Hs-578T
OVCAR-5 = system: OVCAR-5
PC-3 = system: PC-3
RPMI-8226 = system: RPMI-8226
SF-268 = system: SF-268
SF-295 = system: SF-295
SN12C = system: SN12C
SW-620 = system: SW-620
TK-10 = system: TK-10
UO-31 = system: UO-31
HOP-92 = system: HOP-92

Measured: GI50

COC(=O)c1c(C)[n+]([O-])c2cc(Cl)c(Cl)cc2[n+]1[O-]
inactive: A498 10.2 µM | A549 8.07 µM | BT-549 22.6 µM | CAKI-1 20.7 µM | COLO 205 12.2 µM | DU-145 12.5 µM | HCT-116 15.5 µM | HT-29 18.7 µM | Hs-578T 21.9 µM | OVCAR-5 30.9 µM | PC-3 22.4 µM | RPMI-8226 4.17 µM | SF-268 23.4 µM | SF-295 19.6 µM | SN12C 18.2 µM | SW-620 18.3 µM | TK-10 11.3 µM | UO-31 15.8 µM

O=C(Nc1ccccc1)Nn1c(-c2cccs2)nc2ccc(I)cc2c1=O
inactive: A549 19.2 µM | BT-549 10.5 µM | CAKI-1 23.8 µM | COLO 205 21.4 µM | DU-145 24.3 µM | HCT-116 31.4 µM | HOP-92 6.3 µM | HT-29 25.9 µM | OVCAR-5 27.7 µM | PC-3 27.4 µM | RPMI-8226 19.1 µM | SF-268 30.4 µM | SF-295 42.6 µM | SN12C 34.8 µM | SW-620 39.4 µM | TK-10 28.4 µM | UO-31 21.2 µM

NC(=O)c1nnsc1N/N=C/c1ccc([N+](=O)[O-])cc1
inactive: A498 > 100 µM | A549 > 100 µM | BT-549 19.7 µM | CAKI-1 > 100 µM | COLO 205 > 100 µM | DU-145 > 100 µM | HCT-116 > 100 µM | HT-29 > 100 µM | Hs-578T > 100 µM | OVCAR-5 > 100 µM | PC-3 > 100 µM | RPMI-8226 > 100 µM | SF-268 > 100 µM | SF-295 > 100 µM | SN12C > 100 µM | SW-620 > 100 µM | UO-31 77.1 µM

Cn1c(-c2ccc(C=O)o2)ccc1-c1ccc(C=O)o1
inactive: A498 > 100 µM | A549 > 100 µM | BT-549 55.8 µM | CAKI-1 12.5 µM | COLO 205 87.7 µM | DU-145 49.4 µM | HCT-116 18.4 µM | HOP-92 36.6 µM | HT-29 36.1 µM | OVCAR-5 > 100 µM | PC-3 39.4 µM | RPMI-8226 57.1 µM | SF-295 58.7 µM | SN12C 37.6 µM | SW-620 35.4 µM | TK-10 > 100 µM | UO-31 35.3 µM

CC(=O)N1N=C(c2ccccc2Nc2ccccc2C2=NN(C(C)=O)C(c3ccccc3)O2)OC1c1ccccc1 (stereo unspecified)
inactive: A549 17.4 µM | BT-549 87.5 µM | COLO 205 18.6 µM | DU-145 > 100 µM | HCT-116 32.5 µM | HOP-92 93.8 µM | HT-29 25.5 µM | OVCAR-5 > 100 µM | PC-3 10.4 µM | RPMI-8226 25.3 µM | SF-295 32.8 µM | SN12C > 100 µM | SW-620 99.8 µM | TK-10 > 100 µM | UO-31 48.5 µM

Nc1ccc(Cc2ccc(N)c(C(=O)O)c2)cc1C(=O)O
inactive: A498 > 100 µM | A549 > 100 µM | BT-549 > 100 µM | CAKI-1 > 100 µM | COLO 205 > 100 µM | HCT-116 > 100 µM | HOP-92 > 100 µM | HT-29 > 100 µM | Hs-578T > 100 µM | OVCAR-5 > 100 µM | PC-3 > 100 µM | RPMI-8226 > 100 µM | SF-268 > 100 µM | SF-295 > 100 µM | SN12C > 100 µM | SW-620 > 100 µM | TK-10 > 100 µM | UO-31 > 100 µM

CC(C)(C)OC[C@H](O)CC#N
inactive: A498 > 100 µM | A549 > 100 µM | BT-549 > 100 µM | CAKI-1 > 100 µM | COLO 205 > 100 µM | DU-145 > 100 µM | HCT-116 > 100 µM | HT-29 > 100 µM | Hs-578T > 100 µM | OVCAR-5 > 100 µM | PC-3 > 100 µM | RPMI-8226 > 100 µM | SF-268 > 100 µM | SF-295 > 100 µM | SN12C > 100 µM | SW-620 > 100 µM | TK-10 > 100 µM | UO-31 > 100 µM

CCOC(=O)n1c2ccccc2c(=O)n1CCO
inactive: A498 > 100 µM | A549 > 100 µM | BT-549 > 100 µM | CAKI-1 > 100 µM | COLO 205 > 100 µM | DU-145 > 100 µM | HCT-116 > 100 µM | HT-29 > 100 µM | Hs-578T > 100 µM | OVCAR-5 > 100 µM | PC-3 > 100 µM | SF-268 > 100 µM | SF-295 > 100 µM | SN12C > 100 µM | SW-620 > 100 µM | TK-10 > 100 µM | UO-31 > 100 µM

CC(C)(C)OC(=O)NCC(=O)N1CCN(C(=O)CNC(=O)OC(C)(C)C)CC1
inactive: A498 > 100 µM | A549 > 100 µM | BT-549 > 100 µM | CAKI-1 > 100 µM | COLO 205 > 100 µM | DU-145 > 100 µM | HCT-116 > 100 µM | HOP-92 > 100 µM | HT-29 > 100 µM | OVCAR-5 > 100 µM | PC-3 > 100 µM | RPMI-8226 > 100 µM | SF-268 18.7 µM | SF-295 > 100 µM | SN12C > 100 µM | SW-620 > 100 µM | TK-10 > 100 µM | UO-31 > 100 µM

C#CCCCC(=O)N(C(=O)C[S+]([O-])CC)c1ccccc1 (stereo unspecified)
inactive: A549 > 100 µM | BT-549 > 100 µM | CAKI-1 > 100 µM | COLO 205 > 100 µM | DU-145 > 100 µM | HCT-116 > 100 µM | HOP-92 > 100 µM | HT-29 > 100 µM | Hs-578T > 100 µM | OVCAR-5 > 100 µM | PC-3 > 100 µM | SF-268 > 100 µM | SF-295 > 100 µM | SN12C > 100 µM | SW-620 > 100 µM | TK-10 > 100 µM | UO-31 > 100 µM

CCc1n[nH]c(=O)[nH]1
inactive: A549 > 100 µM | BT-549 > 100 µM | CAKI-1 > 100 µM | COLO 205 > 100 µM | DU-145 > 100 µM | HCT-116 > 100 µM | HT-29 > 100 µM | Hs-578T > 100 µM | OVCAR-5 > 100 µM | PC-3 > 100 µM | SF-268 > 100 µM | SF-295 > 100 µM | SN12C > 100 µM | TK-10 > 100 µM | UO-31 > 100 µM

COC(=O)C(Cc1c[nH]c2ccccc12)NC(=O)C(Cc1c[nH]c2ccccc12)NC(=O)C(Cc1c[nH]c2ccccc12)NC(=O)C(Cc1c[nH]c2ccccc12)NC(=O)C(Cc1c[nH]c2ccccc12)NC(=O)OC(C)(C)C (stereo unspecified) (Boc-WWWWW-OMe; configuration not given here)
inactive: A549 67 µM | BT-549 91.8 µM | CAKI-1 > 100 µM | DU-145 33.4 µM | HCT-116 29.7 µM | HT-29 > 100 µM | OVCAR-5 > 100 µM | PC-3 > 100 µM | RPMI-8226 26.2 µM | SF-268 71 µM | SN12C > 100 µM | SW-620 > 100 µM | TK-10 > 100 µM | UO-31 36.6 µM
